# Laboratory results taken from PubChem BioAssay (NCI).
# Where “and” joins values, the source holds several entries; their conditions need not be identical. Equal values may be shown once.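 Cells were grown in 96-well plates and exposed to each compound for 48 hours at five concentrations; endpoints were interpolated linearly between bracketing concentrations, or set to the highest concentration if not reached. GI50 = concentration required for 50% inhibition of growth. TGI: concentration producing complete growth inhibition.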
# Experiments:
# Assay in all cases: NCI tumour cell line growth inhibition, 48 h
# NCI-H522 lung = tested on: NCI-H522 lung
# RPMI-8226 leukemia = tested on: RPMI-8226 leukemia
# HS 578T breast = tested on: HS 578T breast
# SNB-19 CNS = tested on: SNB-19 CNS
# OVCAR-5 ovarian = tested on: OVCAR-5 ovarian
# A549 NSCLC = tested on: A549 NSCLC
# CCRF-CEM leukemia = tested on: CCRF-CEM leukemia
# RXF 393 renal = tested on: RXF 393 renal
# SK-OV-3 ovarian = tested on: SK-OV-3 ovarian
# A498 renal = tested on: A498 renal
Compound,GI50 (NCI-H522 lung),TGI (NCI-H522 lung),GI50 (RPMI-8226 leukemia),TGI (RPMI-8226 leukemia),GI50 (HS 578T breast),TGI (HS 578T breast),GI50 (SNB-19 CNS),TGI (SNB-19 CNS),GI50 (OVCAR-5 ovarian),TGI (OVCAR-5 ovarian),GI50 (A549 NSCLC),TGI (A549 NSCLC),GI50 (CCRF-CEM leukemia),TGI (CCRF-CEM leukemia),GI50 (RXF 393 renal),TGI (RXF 393 renal),GI50 (SK-OV-3 ovarian),TGI (SK-OV-3 ovarian),GI50 (A498 renal),TGI (A498 renal)
CC#Cc1nc(Nc2cc(C)[nH]n2)c2ccccc2n1,6.24 µM,22 µM,6.95 µM and 3.32 µM,22.2 µM,2.28 µM,8.41 µM,19.8 µM,50.7 µM,5.69 µM,30.7 µM,5.16 µM,26.8 µM,4.6 µM,> 100 µM,7.57 µM and 1.67 µM,4.96 µM,5.19 µM,61.3 µM,3.93 µM and 1.08 µM,2.75 µM
CS(=O)(=O)N(c1cc(-c2ccc3ncnc(Nc4cccc(Cl)c4)c3c2)cnc1Cl)S(C)(=O)=O,0.645 µM,7.74 µM,0.522 µM,3.62 µM,0.236 µM,6.08 µM,0.936 µM,7.89 µM,0.181 µM,6.55 µM,1.03 µM,4.24 µM,0.52 µM,89.3 µM,0.231 µM,0.91 µM,0.316 µM,1.81 µM,0.0685 µM,0.388 µM
CCCCCCCCCCCCCCCC1=NC(C)(C)CN1C(C)C,1.55 µM,3.02 µM,1.04 µM,2.82 µM,1.62 µM,3.87 µM,2.04 µM,5.02 µM,1.55 µM,2.93 µM,1.81 µM,3.43 µM,1.41 µM,3.47 µM,1.52 µM,2.96 µM,1.85 µM,3.57 µM,2.41 µM,6.24 µM
O=C1C(Cl)=C(Nc2cccc(O)c2)C(=O)N1Cc1ccc(Cl)cc1Cl,1.43 µM,9.95 µM,1.08 µM,14 µM,1.66 µM,21.8 µM,3.39 µM,33.8 µM,11.7 µM,29.2 µM,8.33 µM,28.1 µM,2.82 µM,52.7 µM,1.06 µM,11.1 µM,9.43 µM,23.7 µM,1.57 µM,10.2 µM
CC(=C/c1ccccc1)/C=C1/NC(=S)N(/C=C2\C(=O)Oc3ccccc3C2=O)C1=O,–,> 90.5 µM,–,> 100 µM,> 100 µM,> 100 µM,–,> 100 µM,–,> 100 µM,–,> 100 µM,–,> 100 µM,–,> 52.4 µM,> 100 µM,> 100 µM,–,> 100 µM
O=C(CCc1ccc(O)cc1)N/N=C/c1cc(Br)ccc1O,3.73 µM,18.1 µM,3.57 µM,33.3 µM,10.1 µM,> 100 µM,6.51 µM,> 100 µM,6.77 µM,> 100 µM,4.03 µM,> 100 µM,2.5 µM,12.6 µM,6.51 µM,> 100 µM,6.35 µM,> 100 µM,9.81 µM,49.6 µM
CC(C)=CCCC(C)C1=C(O)C(=O)C(C)=CC1=O (stereo unspecified),–,4.48 µM,–,> 100 µM,–,> 79.3 µM,–,> 62.4 µM,–,33.5 µM,–,> 100 µM,–,> 20.5 µM,–,17.8 µM,–,78.5 µM,–,35.1 µM
Nc1ncc(-c2cccc(S(N)(=O)=O)c2)c2scc(-c3ccc(F)c(Cl)c3)c12,3.74 µM,7.74 µM,4.92 µM,14.9 µM,7.23 µM,22 µM,10.6 µM,> 25 µM,9.09 µM,> 22.2 µM,6.76 µM,> 25 µM,6.12 µM,> 22.2 µM,3.79 µM,9.43 µM,5.14 µM,> 17.6 µM,5.73 µM,15.4 µM
COc1ccc2ccc3oc([N+](=O)[O-])cc3c2c1,0.169 µM,0.563 µM,0.333 µM,5.92 µM,0.297 µM,1.44 µM,0.281 µM,> 100 µM,0.386 µM,7.68 µM,0.197 µM,0.543 µM,0.193 µM,10.6 µM,0.141 µM,0.316 µM,0.206 µM,0.894 µM,0.126 µM,0.301 µM
COc1c(B(O)O)cc(F)cc1-c1nc2ccc3[nH]ncc3c2c2c1CCCC2,1.03 µM,11.7 µM,1.12 µM,5.58 µM,0.0173 µM,5.43 µM,1.73 µM,13 µM,2.46 µM,16.9 µM,1.17 µM,16 µM,0.53 µM,> 38.6 µM,< 0.01 µM,0.294 µM,1.13 µM,13.9 µM,0.0664 µM,2.52 µM
Cc1cc(Nc2cc(N)ncn2)c(=O)n2c1C(=O)NC21CCCCC1,> 100 µM,> 100 µM,> 100 µM,> 100 µM,54.3 µM,> 100 µM,> 100 µM,> 100 µM,> 100 µM,> 100 µM,> 100 µM,> 100 µM,> 100 µM,> 100 µM,37.7 µM,> 100 µM,62 µM,> 100 µM,50.7 µM,> 100 µM
C=C1C(=O)O[C@H]2[C@H]1CC/C(COC(=O)NCc1ccc(Cn3c(=O)sn(-c4ccccc4)c3=O)cc1)=C\CC[C@@]1(C)O[C@@H]21,1.74 µM,3.48 µM,2.03 µM,6.26 µM,4.14 µM,33.1 µM,4.26 µM,16.1 µM,2.51 µM,6.73 µM,6.22 µM,20.6 µM,0.833 µM,> 100 µM,1.75 µM,3.4 µM,14.1 µM,27.4 µM,3.91 µM,14.5 µM
Cc1cccc(Cc2cnc(NC(=O)CCc3ccc(C)o3)s2)c1,0.183 µM,–,0.318 µM,> 100 µM,0.356 µM,> 95.3 µM,0.37 µM,> 100 µM,0.798 µM,> 100 µM,0.37 µM,> 100 µM,0.234 µM,> 100 µM,0.204 µM,3.71 µM,0.419 µM,> 100 µM,0.343 µM,10.5 µM
